Experiments:
Experiment in all cases: relative viability (nuclei count vs DMSO), 5 days (fraction); higher = more cells survive
Axitinib + Linsitinib = compound: CNC(=O)c1ccccc1Sc1ccc2c(/C=C/c3ccccn3)n[nH]c2c1 [Axitinib] + C[C@]1(O)C[C@@H](c2nc(-c3ccc4ccc(-c5ccccc5)nc4c3)c3c(N)nccn32)C1 [Linsitinib] (partner 1 µM)
Outline: (§1)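 Dosing by pin tool came one day after lung cancer cell lines were seeded in 1536-well plates, using either one drug or a fixed anchor-drug dose plus five library-drug doses (not always all listed) in √10 steps. After 5 days, nuclei were counted on 4× images. Relative viability is treated-well nuclei count divided by vehicle-well nuclei count, and values are medians of duplicate plates.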

Axitinib + Palbociclib = compound: CNC(=O)c1ccccc1Sc1ccc2c(/C=C/c3ccccn3)n[nH]c2c1 [Axitinib] + CC(=O)c1c(C)c2cnc(Nc3ccc(N4CCNCC4)cn3)nc2n(C2CCCC2)c1=O [Palbociclib] (partner 0.5 µM)
Outline: as §1

[1] = compound: CC1=CC=C(C=C1)C(=O)CN2C3=C(CCCC3)SC2=N [Pifithrin_alpha] + NC(=O)Nc1cc(-c2cccc(F)c2)sc1C(=O)N[C@H]1CCCNC1 [AZD7762] (partner 0.2 µM)
Outline: as §1

[2] = compound: Nc1nc(Nc2ccc3c(c2)CC[C@@H](N2CCCC2)CC3)nn1-c1cc2c(nn1)-c1ccccc1CCC2 [Bemcentinib] + CC(=O)c1c(C)c2cnc(Nc3ccc(N4CCNCC4)cn3)nc2n(C2CCCC2)c1=O [Palbociclib] (partner 0.5 µM)
Outline: as §1

Cell Line	relative viability (Axitinib + Linsitinib; first compound 0.005 µM)	relative viability (Axitinib + Linsitinib; first compound 0.01581 µM)	relative viability (Axitinib + Linsitinib; first compound 0.05 µM)	relative viability (Axitinib + Linsitinib; first compound 0.1581 µM)	relative viability (Axitinib + Linsitinib; first compound 0.5 µM)	relative viability (Axitinib + Palbociclib; first compound 0.005 µM)	relative viability (Axitinib + Palbociclib; first compound 0.01581 µM)	relative viability (Axitinib + Palbociclib; first compound 0.05 µM)	relative viability (Axitinib + Palbociclib; first compound 0.1581 µM)	relative viability (Axitinib + Palbociclib; first compound 0.5 µM)	relative viability ([1]; first compound 1 µM)	relative viability ([1]; first compound 3.162 µM)	relative viability ([1]; first compound 10 µM)	relative viability ([1]; first compound 31.62 µM)	relative viability ([1]; first compound 100 µM)	relative viability ([2]; first compound 0.04 µM)	relative viability ([2]; first compound 0.1265 µM)	relative viability ([2]; first compound 0.4 µM)	relative viability ([2]; first compound 1.265 µM)	relative viability ([2]; first compound 4 µM)
Calu-6	1.08	0.97	1.06	1.01	1.07	–	–	–	–	–	–	–	–	–	–	–	–	–	–	–
ChaGo-K-1	–	–	–	–	–	0.88	0.947	0.972	0.863	1	0.905	0.947	0.872	0.683	0.866	0.963	0.953	1.02	0.954	0.938
EBC-1	0.935	0.874	0.884	0.904	1.1	–	–	–	–	–	–	–	–	–	–	–	–	–	–	–
EKVX	1.04	0.849	0.946	0.997	1.08	0.402	0.368	0.433	0.381	0.358	0.685	0.562	0.592	0.463	0.424	0.333	0.362	0.427	0.427	0.405
EMC-BAC-2	0.874	0.781	0.813	0.782	0.837	0.522	0.562	0.49	0.508	0.533	1.09	1.09	0.954	0.82	1.04	0.519	0.556	0.507	0.513	0.519
EPLC-272H	1.33	1.1	1.32	1.12	1.07	0.294	0.369	0.336	0.354	0.309	–	0.233	0.212	0.196	0.215	0.287	0.309	0.361	0.302	0.34
H3255	1.08	0.797	0.83	0.917	1.03	0.332	0.294	0.316	0.334	0.329	0.716	0.95	0.801	0.683	0.637	0.283	0.305	0.297	0.275	0.334
HARA	1.06	0.972	1.09	0.914	1.05	0.241	0.334	0.216	0.221	0.247	0.3	0.329	0.219	0.23	0.209	0.211	0.252	0.215	0.314	0.243

Reference: the supplement of paper PMC10307832
